Results reported in patent publication EP4467137A1, “TREATMENT OF FRONTOTEMPORAL DEMENTIA OR FRONTOTEMPORAL LOBAR DEMENTIA” (Universidad Autónoma de Madrid, priority 2023, dated 2024).

Experiments:
[1] = test system: primary rat glial cultures; experiment: Anti-neuroinflammatory screening in LPS-treated primary glial cultures (Griess, normalized by MTT); assay type: cell-based; conditions: % reduction of nitrites, LPS alone = 100 % inflammation, read-out: Anti-neuro inflammatory effect at 3 µM (%)
Method: Screening for anti-inflammatory properties in primary rat glial cultures was performed according to the protocol described previously [Gameiro, Isabel et al. "Discovery of the first dual GSK3β inhibitor/Nrf2 inducer. A new multitarget therapeutic strategy for Alzheimer's disease." Scientific reports vol. 7 45701. 31 Mar. 2017, doi:10.1038/srep45701]. All compounds were evaluated at the single concentration of 3 µM. Neuroinflammation was quantified as the value of released […], measured by the Griess method, normalized by the number of viable cells measured by the MTT method [Mosmann, T. "Rapid colorimetric assay for cellular growth and survival: application to proliferation and cytotoxicity assays." Journal of immunological methods vol. 65, 1-2 (1983): 55-63. doi:10.1016/0022-1759(83)90303-4]. LPS alone was considered 100 % inflammation.
Based on the results obtained (Table 2), Compound 1 was selected for further in vitro and in vivo studies as it was endowed with the best anti-neuroinflammatory activity. Table 2: Comparative in vitro results. Cell viability/toxicity: effect of the compound per se on cell viability of […] cells measured with the MTT method. Anti-neuroinflammatory effect: % Reduction of nitrites in primary rat glial cultures. PAMPA-BBB: In vitro blood-brain barrier permeation assay, permeation rate Pe (10-6 cm.s-1). NRF2, CD (µM): Concentration of compound that doubles de activation of NRF2. ORAC: Oxygen radical absorbance capacity. LOX-5: lipoxygenase-5.

[2] = test system: proinflammatory cytokines; experiment: LPS in vivo model: brain cytokine mRNAs by qRT-PCR; parameters: species or system mouse; conditions: 20 mg·kg^-1 i.p. daily for 4 days; 4 h and 24 h after LPS 0.5 mg·kg^-1 i.p.
Method: (§1) • Figure 1. Compound 1 reduces the inflammatory response against LPS in vitro. (A) Nitric oxide (NO) production in BV2 cells detected by DAF 24 h after LPS exposure and normalized by cell viability measured by MTT (n = 9). (B) qRT-PCR of TNFα (n = 9) in BV2 cells after 24 h LPS exposure. Sulforaphane (Sfn) was used as a positive control. […] Compound 1 decreases the inflammatory process 4 and 24 hours after LPS administration in vivo. Compound 1 (20 mg·kg^-1) daily was injected i.p. four days before the i.p. LPS (0.5 mg·kg^-1) administration. […] Compound 1 ameliorates the resolution of the inflammatory process triggered by LPS. […] (B) Locomotion activity measured by line crossings of an imaginary grid. […] Compound 1 reduced tau seeding in HEK-293 tau FRET biosensor measured by flow cytometer (C). […] Representative images of hyperphosphorylated tau intensity measured by AT8 and AT180 antibodies in three different regions of the hippocampus (GD, CA3 and CA1) (n = 11-12). (B) Quantification AT8 intensity, normalized to CA3 intensity of Sham animals. (C) Quantification of AT180 intensity, normalized to CA3 intensity of Sham animals (n = 9-12). […] Quantification of sarkosyl soluble (n = 10) (C) and insoluble species (D) using AT8 antibody (n = 10). Quantification of sarkosyl soluble (n = 10) (E) and insoluble species (F) using AT180 antibody (n = 10). […]

[3] = test system: mouse cytokines, chemokines, and growth factors; experiment: LPS in vivo model: multiplex assay of brain cytokines and chemokines (Luminex xMAP); conditions: 20 mg·kg^-1 i.p.
Method: • Figure 1. Compound 1 reduces the inflammatory response against LPS in vitro. (A) Nitric oxide (NO) production in BV2 cells detected by DAF 24 h after LPS exposure and normalized by cell viability measured by MTT (n = 9). (B) qRT-PCR of TNFα (n = 9) in BV2 cells after 24 h LPS exposure. Sulforaphane (Sfn) was used as a positive control. […] Compound 1 decreases the inflammatory process 4 and 24 hours after LPS administration in vivo. Compound 1 (20 mg·kg^-1) daily was injected i.p. four days before the i.p. LPS (0.5 mg·kg^-1) administration. […] Compound 1 ameliorates the resolution of the inflammatory process triggered by LPS. Multiplex assay of cytokines 4 h (A) and 24 h (B) after the proinflammatory stimuli (n = 5). […] Compound 1 reverts brain microgliosis triggered by LPS. Representative images of brain microglia 4 h and 24 h after the proinflammatory stimuli (A). Mean intensity of IBA-1 per cell 4 h (n = 10) and 24 h (n = 7, except n = 6 LPS + Compound 1) after LPS injection (B). […] Sub-chronical Compound 1 administration improves behavioural parameters in LPS treated mice. Compound 1 (20 mg·kg^-1) was injected once a day via i.p. four days before the i.p. LPS (0.5 mg·kg^-1) administration, thereafter behavioural tests were conducted. (A) Mice weight change (T0 and T24: saline n = 17, LPS n = 17, LPS + Compound 1 n = 19, T4 and T8 saline n = 8, LPS n = 7, LPS + Compound 1 n = 8). (B) Locomotion activity measured by line crossings of an imaginary grid. (C) Scheme of NOR test. (D) Discrimination index (DI) of the mice studied: saline (n = 16), LPS (n = 9) and LPS + Compound 1 (n = 13). […] Compound 1 reduces hyperphosphorylated tau species and tau seeding in vitro. Compound 1 reduces hyperphosphorylated tau levels (AT8) in primary neuronal cultures of mice after 8 days of AVV-hTauP301L treatment. Dimethyl fumarate was used as a positive control (DMF). (A) Representative images, AT8 is shown in green and Map2, marker of neurons, is shown in white. […] Compound 1 reduced tau seeding in HEK-293 tau FRET biosensor measured by flow cytometer (C). Tg4510 mouse brain homogenate was used as aggregant stimuli. […] Data represent mean ± SEM. • Figure 7. Compound 1 reduces hyperphosphorylated tau species in adult mice with hTauP301L tauopathy after 35 days oral administration (50 mg/kg/day). (A). Representative images of hyperphosphorylated tau intensity measured by AT8 and AT180 antibodies in three different regions of the hippocampus (GD, CA3 and CA1) (n = 11-12). (B) Quantification AT8 intensity, normalized to CA3 intensity of Sham animals. (C) Quantification of AT180 intensity, normalized to CA3 intensity of Sham animals (n = 9-12). […] Compound 1 reduces insoluble forms of hyperphosphorylated tau species in adult mice with hTauP301L tauopathy after 35 days oral administration (50 mg/kg/day). (A). Representative images of WB against AT8 and (B) AT180 antibodies of sarkosyl solule and insoluble protein species. Quantification of sarkosyl soluble (n = 10) (C) and insoluble species (D) using AT8 antibody (n = 10). Quantification of sarkosyl soluble (n = 10) (E) and insoluble species (F) using AT180 antibody (n = 10). […] Compound 1 prevents cognitive decline in spatial memory behavioural paradigms in adult mice with hTauP301L tauopathy after 35 days oral administration (20 mg/kg or 50 mg/kg/day). (A) Representation of T-maze alternation test and (B) Object Location test (OLT). (C) Average percentage of success in seven independent attempts (n = 14-19). (D) Discrimination index in the OLT assay (AAV-eGFP, n = 15; AAV-hTau, n = 10; AAV-hTau + Compound 1 at 20 mg/kg, n = 5; AAV-hTau + Compound 1 at 50 mg/kg, n = 8). […] Compound 1 reduces hyperphosphorylated tau species and improves cognitive behaviour in aged (16-18 months old) mice with hTauP301L tauopathy after 35 days oral administration (50 mg/kg/day). (A). Representative images of hyperphosphorylated tau intensity measured by AT8 and AT180 antibodies in three different regions of the hippocampus (GD, CA3 and CA1) (n = 12). […]

[4] = test system: TNF-α mRNA; experiment: qRT-PCR of TNFα in LPS-exposed BV2 cells; assay type: cell-based, mouse; conditions: 10 and 30 µM, 24 h LPS
Method: as §1

## COc1ccc2c(c1)CC(c1c[nH]c3ccc(OC)cc13)N2 (stereo not drawn) [Compound 1, 5-Methoxy-3-(5-methoxyindolin-2-yl)-1H-indole]
[1]
  inhibition at 3 µM: 100 ± 6.6%
[2]
  IL-1β mRNA in brain: reduced
  TNFα mRNA in brain: reduced
[3]; 4 and 24 h after LPS
  IP10: decreased significantly
  KC: decreased significantly
  MIP2: decreased significantly
  RANTES: decreased significantly
[3]; 4 h after LPS
  IL-6 in brain: marked reduction
  IL-7 in brain: marked reduction
  MCP-1: decreased significantly
[3]; 4 h and 24 h after LPS, most of them
  Additional cytokines (Figure 3): decreased with compound treatment
[3]; 24 h after LPS
  IL-6 in brain: restored to basal conditions
  IL-7 in brain: restored to basal conditions
[3]; after LPS
  granulocyte-colony stimulating factor (G-CSF) brain levels: significantly reduced
[4]
  TNF-α mRNA: reduced
